Data on 9 compounds can be found in ChEMBL document CHEMBL5512617, “Tackling Influenza A virus by M2 ion channel blockers: Latest progress and limitations” (Eur J Med Chem, 2024).

The target of experiment [1] is Matrix protein 2 (Influenza A virus (A/Udorn/307/1972(H3N2)), UniProt P0DOF8, V27A).
In the next experiment the test system is Influenza A virus. Particulars: mdck.

What is called IC50 is the concentration needed to halve the response being measured. A low value points to inhibition by little substance. In experiment [1], `C1CCC2(CC1)CCNCC2` came in with an IC50 greater than 200 µM.

One may read the EC50 as the concentration at which the effect is half-maximal. The low end stands for a more potent agent, the high end for a less potent agent. The compound `NC1CCC2(CC1)C1CC3CC(C1)CC2C3` (stereo unspecified) returned an EC50 in the experiment with Influenza A virus of 1.8 µM.

As to `NC1CCCC2(CCCCCC2)CC1` (stereo unspecified), half-maximal inhibition in experiment [1] (IC50) required 11.3 µM.

In turn, `N=C(N)NC1CCC2(CC1)C1CC3CC(C1)CC2C3` (stereo unspecified) showed an IC50 in experiment [1] of 0.5 µM. The same compound gave an EC50 in the experiment with Influenza A virus greater than 30 µM.

For `NCC1CCC2(CCCCC2)CC1`, the IC50 in experiment [1] turned out to be 31.1 µM.

In turn, `CC(N)C1CCC2(CCCCC2)CC1` (stereo unspecified) showed an IC50 in experiment [1] of 25.2 µM.

Consider `NC1CSC2(SC1)C1CC3CC(C1)CC2C3` (stereo unspecified), for which inhibition in experiment [1] was half-maximal at 0.4 µM (IC50). In addition, the EC50 in the experiment on Influenza A virus came out at 1 µM.

`NC1CCCC2(CCCCC2)CC1` (stereo unspecified): half-maximal inhibition in experiment [1] (IC50) was put at 68.1 µM.

The compound `NC1CCC2(CCCCCC2)CC1` displayed an IC50 in experiment [1] of 28.1 µM.
